From paper doi:10.1101/2025.06.03.657556v1 (biorxiv, 2025) come the findings set out here.

A word on the Kd: it is the equilibrium constant for the complex coming apart. By IC50 is commonly meant the concentration needed to halve the response being measured.

One assay has as its target RhoA (Homo sapiens, UniProt P61586). Nature of the assay: surface plasmon resonance. It is filed as binding.
Another assay deals with RhoA (HEK 293F cells) (Homo sapiens, UniProt P61586). The assay can be described thus: fluorescent RhoA-GTP probe, F488/F405 ratio, HEK […] cells. It is filed as cell-based.
RhoA (HEK 293F cells), sequence (P61586 1-190): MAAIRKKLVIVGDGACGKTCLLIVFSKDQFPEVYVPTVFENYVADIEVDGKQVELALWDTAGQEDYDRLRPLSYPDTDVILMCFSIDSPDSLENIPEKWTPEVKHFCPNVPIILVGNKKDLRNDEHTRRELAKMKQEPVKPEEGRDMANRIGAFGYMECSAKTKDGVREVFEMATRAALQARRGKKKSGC

RhoA, sequence (P61586 1-190): as above

As for `CCc1cccc([C@@H](O)CO)c1` [AH001], the dissociation constant Kd at RhoA was found to be 73.2 nM. In addition, the IC50 on RhoA (HEK 293F cells) stood at 25.7 ± 1.18 nM.
